From patent US11458123B2 (Arvinas, Inc., priority 2016, dated 2022)

Each compound was assayed on tau protein (assay: Tau protein in vitro degradation assay (Western blot, Tau-13 antibody)). Details: SK-N-SH cells; 72 hours of incubation; tested at 1000 nM, 300 nM and 100 nM.
Format: cell-based, human
Method: Tau Protein In Vitro Degradation Assay
To determine effect of PROTACs on tau protein degradation SK-N-SH cells were seeded in a 24-well tissue culture-treated plate for at least 18-hours prior to compound addition. Tau PROTACs were evaluated for tau degradation by lysing the cells in lysis buffer with protease inhibitors following a 72-hour incubation with tau PROTACs at 1000 nM, 300 nM and 100 nM for Table 1 and 300 nM, 100 nM, 33 nM and 11 nM for Table 2. Cell lysates were run on standard SDS-PAGE gels, and tau levels were detected by Western blotting using Tau-13 antibody from Abcam (Cambridge, UK) that binds to all forms of human tau.

SMILES	Activity* (highest amount of degradation observed at any dosage, as tau protein remaining)
Cc1ncsc1-c1ccc(CNC(=O)[C@@H]2C[C@@H](O)CN2C(=O)[C@@H](NC(=O)COCCOCCOCCOc2ccc(-c3ccc4c(c3)[nH]c3ccncc34)cn2)C(C)(C)C)cc1 [Compound 1, (2S,4R)-1-((S)-14-(5-(5H-pyrido[4,3-b]indol-7-yl)pyridin-2-yloxy)-2-tert-butyl-4-oxo-6,9,12-trioxa-3-azatetradecane)-4-hydroxy-N-(4-(4-methylthiazol-5-yl)benzyl)pyrrolidine-2-carboxamide]	C (>80% tau protein remaining after 72 hours of incubation with the test compound)
O=C1CCC(N2C(=O)c3cccc(NCCOCCOCCOCCOc4ccc(-c5ccc6c(c5)[nH]c5ccncc56)cn4)c3C2=O)C(=O)N1 (stereo not shown) [Compound 2, 4-(2-(2-(2-(2-(5-(5H-pyrido[4,3-b]indol-7-yl)pyridin-2-yloxy)ethoxy)ethoxy)ethoxy)ethylamino)-2-(2,6-dioxopiperidin-3-yl)isoindoline-1,3-dione]	A (≤50% tau protein remaining after 72 hours of incubation with the test compound)
O=C1CCC(N2C(=O)c3cccc(NCCOCCOCCOc4ccc(-c5ccc6c(c5)[nH]c5ccncc56)cn4)c3C2=O)C(=O)N1 (stereo not shown) [Compound 3, 4-(2-(2-(2-(5-(5H-pyrido[4,3-b]indol-7-yl)pyridin-2-yloxy)ethoxy)ethoxy)ethylamino)-2-(2,6-dioxopiperidin-3-yl)isoindoline-1,3-dione]	A (≤50% tau protein remaining after 72 hours of incubation with the test compound)
O=C1CCC(N2C(=O)c3cccc(NCCOCCOCCOCCOCCOc4ccc(-c5ccc6c(c5)[nH]c5ccncc56)cn4)c3C2=O)C(=O)N1 (stereo not shown) [Compound 4, 4-((14-((5-(5H-pyrido[4,3-b]indol-7-yl)pyridin-2-yl)oxy)-3,6,9,12-tetraoxatetradecyl)amino)-2-(2,6-dioxopiperidin-3-yl)isoindoline-1,3-dione]	A (≤50% tau protein remaining after 72 hours of incubation with the test compound)
Cc1ncsc1-c1ccc(CNC(=O)[C@@H]2C[C@@H](O)CN2C(=O)[C@@H](NC(=O)COCCOCCOc2ccc(-c3ccc4c(c3)[nH]c3ccncc34)cn2)C(C)(C)C)cc1 [Compound 5, (2S,4R)-1-((S)-2-(2-(2-(2-(5-(5H-pyrido[4,3-b]indol-7-yl)pyridin-2-yloxy)ethoxy)ethoxy)acetamido)-3,3-dimethylbutanoyl)-4-hydroxy-N-(4-(4-methylthiazol-5-yl)benzyl)pyrrolidine-2-carboxamide]	C (>80% tau protein remaining after 72 hours of incubation with the test compound)
Cc1ncsc1-c1ccc(CNC(=O)[C@@H]2C[C@@H](O)CN2C(=O)[C@@H](NC(=O)COCCOCCOCCOCCOc2ccc(-c3ccc4c(c3)[nH]c3ccncc34)cn2)C(C)(C)C)cc1 [Compound 6, (2S,4R)-1-((S)-17-(5-(5H-pyrido[4,3-b]indol-7-yl)pyridin-2-yloxy)-2-tert-butyl-4-oxo-6,9,12,15-tetraoxa-3-azaheptadecane)-4-hydroxy-N-(4-(4-methylthiazol-5-yl)benzyl)pyrrolidine-2-carboxamide]	C (>80% tau protein remaining after 72 hours of incubation with the test compound)
Cc1ncsc1-c1ccc(CNC(=O)[C@@H]2C[C@@H](O)CN2C(=O)[C@@H](NC(=O)COCCOCCOCCN2CCN(c3ccn4c(n3)nc3ccccc34)CC2)C(C)(C)C)cc1 [Compound 7, (2S,4R)-1-((S)-14-(4-(benzo[4,5]imidazo[1,2-a]pyrimidin-2-yl)piperazin-1-yl)-2-(tert-butyl)-4-oxo-6,9,12-trioxa-3-azatetradecanoyl)-4-hydroxy-N-(4-(4-methylthiazol-5-yl)benzyl)pyrrolidine-2-carboxamide]	C (>80% tau protein remaining after 72 hours of incubation with the test compound)
Cc1ncsc1-c1ccc(CNC(=O)[C@@H]2C[C@@H](O)CN2C(=O)[C@@H](NC(=O)COCCOCCOCCCOc2ccc3nc(-c4ccc(N(C)C)cc4)ccc3c2)C(C)(C)C)cc1 [Compound 8, (2S,4R)-1-((S)-2-(tert-butyl)-15-((2-(4-(dimethylamino)phenyl)quinolin-6-yl)oxy)-4-oxo-6,9,12-trioxa-3-azapentadecanoyl)-4-hydroxy-N-(4-(4-methylthiazol-5-yl)benzyl)pyrrolidine-2-carboxamide]	C (>80% tau protein remaining after 72 hours of incubation with the test compound)
Cc1ncsc1-c1ccc(CNC(=O)[C@@H]2C[C@@H](O)CN2C(=O)[C@@H](NC(=O)COCCOCCOCCOCCCOc2ccc3nc(-c4ccc(N(C)C)cc4)ccc3c2)C(C)(C)C)cc1 [Compound 9, (2S,4R)-1-((S)-2-tert-butyl-18-(2-(4-(dimethylamino)phenyl)quinolin-6-yloxy)-4-oxo-6,9,12,15-tetraoxa-3-azaoctadecane)-4-hydroxy-N-(4-(4-methylthiazol-5-yl)benzyl)pyrrolidine-2-carboxamide]	C (>80% tau protein remaining after 72 hours of incubation with the test compound)
Cc1ncsc1-c1ccc(CNC(=O)[C@@H]2C[C@@H](O)CN2C(=O)[C@@H](NC(=O)COCCOCCOCC(=O)N2CCN(c3ccn4c(n3)nc3ccccc34)CC2)C(C)(C)C)cc1 [Compound 10]	C (>80% tau protein remaining after 72 hours of incubation with the test compound)
Cc1ncoc1-c1ccc(CNC(=O)[C@@H]2C[C@@H](O)CN2C(=O)[C@@H](NC(=O)COCCOCCOCCN2CCN(c3ccn4c(n3)nc3ccccc34)CC2)C(C)(C)C)cc1 [Compound 11, (2S,4R)-1-((S)-14-(4-(benzo[4,5]imidazo[1,2-a]pyrimidin-2-yl)piperazin-1-yl)-2-(tert-butyl)-4-oxo-6,9,12-trioxa-3-azatetradecanoyl)-4-hydroxy-N-(4-(4-methyloxazol-5-yl)benzyl)pyrrolidine-2-carboxamide]	C (>80% tau protein remaining after 72 hours of incubation with the test compound)
Cc1ncoc1-c1ccc(CNC(=O)[C@@H]2C[C@@H](O)CN2C(=O)[C@@H](NC(=O)COCCOCCOCCOCCN2CCN(c3ccn4c(n3)nc3ccccc34)CC2)C(C)(C)C)cc1 [Compound 12, (2S,4R)-1-((S)-17-(4-(benzo[4,5]imidazo[1,2-a]pyrimidin-2-yl)piperazin-1-yl)-2-(tert-butyl)-4-oxo-6,9,12,15-tetraoxa-3-azaheptadecanoyl)-4-hydroxy-N-(4-(4-methyloxazol-5-yl)benzyl)pyrrolidine-2-carboxamide]	C (>80% tau protein remaining after 72 hours of incubation with the test compound)
Cc1ncoc1-c1ccc(CNC(=O)[C@@H]2C[C@@H](O)CN2C(=O)[C@@H](NC(=O)COCCOCCOCC(=O)N2CCN(c3ccn4c(n3)nc3ccccc34)CC2)C(C)(C)C)cc1 [Compound 13, (2S,4R)-1-((S)-14-(4-(benzo[4,5]imidazo[1,2-a]pyrimidin-2-yl)piperazin-1-yl)-2-(tert-butyl)-4,14-dioxo-6,9,12-trioxa-3-azatetradecanoyl)-4-hydroxy-N-(4-(4-methyloxazol-5-yl)benzyl)pyrrolidine-2-carboxamide]	C (>80% tau protein remaining after 72 hours of incubation with the test compound)
Cc1ncoc1-c1ccc(CNC(=O)[C@@H]2C[C@@H](O)CN2C(=O)[C@@H](NC(=O)COCCOCCOCCOCC(=O)N2CCN(c3ccn4c(n3)nc3ccccc34)CC2)C(C)(C)C)cc1 [Compound 14, (2S,4R)-1-((S)-17-(4-(benzo[4,5]imidazo[1,2-a]pyrimidin-2-yl)piperazin-1-yl)-2-(tert-butyl)-4,17-dioxo-6,9,12,15-tetraoxa-3-azaheptadecanoyl)-4-hydroxy-N-(4-(4-methyloxazol-5-yl)benzyl)pyrrolidine-2-carboxamide]	C (>80% tau protein remaining after 72 hours of incubation with the test compound)
Cc1ncsc1-c1ccc([C@H](C)NC(=O)[C@@H]2C[C@@H](O)CN2C(=O)[C@@H](NC(=O)COCCOCCOCCN2CCN(c3ccn4c(n3)nc3ccccc34)CC2)C(C)(C)C)cc1 [Compound 15, (2S,4R)-1-((S)-14-(4-(benzo[4,5]imidazo[1,2-a]pyrimidin-2-yl)piperazin-1-yl)-2-(tert-butyl)-4-oxo-6,9,12-trioxa-3-azatetradecanoyl)-4-hydroxy-N—((S)-1-(4-(4-methylthiazol-5-yl)phenyl)ethyl)pyrrolidine-2-carboxamide]	C (>80% tau protein remaining after 72 hours of incubation with the test compound)
Cc1ncsc1-c1ccc([C@H](C)NC(=O)[C@@H]2C[C@@H](O)CN2C(=O)[C@@H](NC(=O)COCCOCCOCCOCCN2CCN(c3ccn4c(n3)nc3ccccc34)CC2)C(C)(C)C)cc1 [Compound 16, (2S,4R)-1-((S)-17-(4-(benzo[4,5]imidazo[1,2-a]pyrimidin-2-yl)piperazin-1-yl)-2-(tert-butyl)-4-oxo-6,9,12,15-tetraoxa-3-azaheptadecanoyl)-4-hydroxy-N—((S)-1-(4-(4-methylthiazol-5-yl)phenyl)ethyl)pyrrolidine-2-carboxamide]	C (>80% tau protein remaining after 72 hours of incubation with the test compound)
